Results as given in patent US11339120B2, “Phenyl derivatives as cannabinoid receptor 2 agonists” (priority 2015, dated 2022).
pEC50: −log10 of the molar value. Like-named read-outs stand apart in the source and are kept apart here.

How the values were obtained:
human CB2 receptors = molecular target: T1, human CB2 receptors (Homo sapiens, UniProt P34972); assay: functional cAMP assay, CHO cells expressing human CB2; assay type: cell-based
T1 construct: expressed in transfected cells; host or cells: CHO cells
T1 sequence (P34972 whole entry): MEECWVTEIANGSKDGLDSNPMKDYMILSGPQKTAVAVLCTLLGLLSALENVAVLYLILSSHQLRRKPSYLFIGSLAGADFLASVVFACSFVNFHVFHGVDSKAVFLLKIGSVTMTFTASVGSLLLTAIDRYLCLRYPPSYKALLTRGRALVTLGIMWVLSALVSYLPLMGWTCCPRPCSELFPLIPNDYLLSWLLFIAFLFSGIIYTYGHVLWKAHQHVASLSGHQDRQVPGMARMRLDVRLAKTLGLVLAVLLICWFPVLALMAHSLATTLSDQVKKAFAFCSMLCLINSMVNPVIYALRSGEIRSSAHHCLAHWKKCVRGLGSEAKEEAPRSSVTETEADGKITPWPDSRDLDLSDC
Method: (§1) CHO cells expressing human CB1 or CB2 receptors are seeded 17-24 hours prior to the experiment 50.000 cells per well in a black 96 well plate with flat clear bottom (Corning Costar #3904) in DMEM (Invitrogen No. 31331), 1×HT supplement, with 10% fetal calf serum and incubated at 5% CO2 and 37° C. in a humidified incubator. The growth medium was exchanged with Krebs Ringer Bicarbonate buffer with 1 mM IBMX and incubated at 30° C. for 30 min. Compounds were added to a final assay volume of 100 μl and incubated for 30 min at 30° C. Using the cAMP-Nano-TRF detection kit the assay (Roche Diagnostics) was stopped by the addition of 50 μl lysis reagent (Tris, NaCl, 1.5% Triton X100, 2.5% NP40, 10% NaN3) and 50 μl detection solutions (20 μM mAb Alexa700-cAMP 1:1, and 48 μM Ruthenium-2-AHA-cAMP) and shaken for 2 h at room temperature. The time-resolved energy transfer is measured by a TRF reader (Evotec Technologies GmbH), equipped with a ND:YAG laser as excitation source. The plate is measured twice with the excitation at 355 nm and at the emission with a delay of 100 ns and a gate of 100 ns, total exposure time 10 s at 730 (bandwidth 30 nm) or 645 nm (bandwidth 75 nm), respectively. The FRET signal is calculated as follows: FRET=T730-Alexa730-P(T645-B645) with P=Ru730-B730/Ru645-B645, where T730 is the test well measured at 730 nM, T645 is the test well measured at 645 nm, B730 and B645 are the buffer controls at 730 nm and 645 nm, respectively. cAMP content is determined from the function of a standard curve spanning from 10 μM to 0.13 nM cAMP.
(§2) EC50 values were determined using Activity Base analysis (ID Business Solution, Limited). The EC50 values for a wide range of cannabinoid agonists generated from this assay were in agreement with the values published in the scientific literature.

human CB1 receptors = molecular target: T2, human CB1 receptors (Homo sapiens, UniProt P21554); assay: functional cAMP assay, CHO cells expressing human CB1; assay type: cell-based
T2 construct: expressed in transfected cells; host or cells: CHO cells
T2 sequence (P21554 whole entry): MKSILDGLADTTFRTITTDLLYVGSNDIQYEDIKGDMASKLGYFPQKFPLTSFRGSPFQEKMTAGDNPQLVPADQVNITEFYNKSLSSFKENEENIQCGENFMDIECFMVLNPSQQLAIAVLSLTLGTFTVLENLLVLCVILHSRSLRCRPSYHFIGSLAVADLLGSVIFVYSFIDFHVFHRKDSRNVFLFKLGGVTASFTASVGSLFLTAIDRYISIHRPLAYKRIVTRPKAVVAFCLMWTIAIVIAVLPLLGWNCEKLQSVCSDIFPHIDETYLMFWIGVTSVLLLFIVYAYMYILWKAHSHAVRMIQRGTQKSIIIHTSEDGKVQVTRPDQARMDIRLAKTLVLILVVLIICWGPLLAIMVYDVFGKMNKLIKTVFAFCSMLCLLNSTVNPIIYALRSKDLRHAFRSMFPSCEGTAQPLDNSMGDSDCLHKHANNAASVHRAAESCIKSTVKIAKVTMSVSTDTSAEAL
Method: as §1, §2

[1] = functional cAMP assay, CHO cells expressing human CB2, read-out: Human CB2 EC50

Cc1nc([C@](C)(CS(C)(=O)=O)NC(=O)c2ccc(C3CC3)c(OCC(F)(F)F)c2)no1 [Example 28, 4-Cyclopropyl-N-[(2R)-1-(methanesulfonyl)-2-(5-methyl-1,2,4-oxadiazol-3-yl)propan-2-yl]-3-(2,2,2-trifluoroethoxy)benzamide]
pEC50 (human CB2 receptors): 7.10 | pEC50 (human CB1 receptors): < 5.00

NC(=O)[C@@H]1CC(F)(F)CN1C(=O)c1ccc(C2CC2)c(OCC2CC2)c1 [Example 17, 1-[4-Cyclopropyl-3-(cyclopropylmethoxy)benzoyl]-4,4-difluoro-L-prolinamide]
pEC50 (human CB2 receptors): 9.29 | pEC50 (human CB1 receptors): < 5.00

Cc1nc([C@](C)(CC2CC2)NC(=O)c2ccc(C3CC3)c(OC(C)C)c2)no1 (single isomer, unassigned) [Example 38, 4-Cyclopropyl-N-[(2S)-1-cyclopropyl-2-(5-methyl-1,2,4-oxadiazol-3-yl)propan-2-yl]-3-[(propan-2-yl)oxy]benzamide or enantiomer]
pEC50 (human CB2 receptors): 7.57 | pEC50 (human CB1 receptors): < 5.00

C[C@](CC(N)=O)(NC(=O)c1ccc(C2CC2)c(OCCF)c1)C1CC1 [Example 45, N-[(2R)-4-Amino-2-cyclopropyl-4-oxobutan-2-yl]-4-cyclopropyl-3-(2-fluoroethoxy)benzamide]
pEC50 (human CB2 receptors): 8.13 | pEC50 (human CB1 receptors): < 5.00

Cc1nc(C(NC(=O)c2ccc(C3CC3)c(OCC(F)(F)F)c2)C2(C)COC2)no1 (centres unmarked) [Example 67, 4-Cyclopropyl-N-[(5-methyl-1,2,4-oxadiazol-3-yl)(3-methyloxetan-3-yl)methyl]-3-(2,2,2-trifluoroethoxy)benzamide]
pEC50 (human CB2 receptors; [1]): 6.58 | pEC50 (human CB1 receptors): < 5.00

Cc1nc([C@@](C)(CC2CC2)NC(=O)c2ccc(C3CC3)c(OC(C)C)c2)no1 [Example 49, 4-Cyclopropyl-N-[(2R)-1-cyclopropyl-2-(5-methyl-1,2,4-oxadiazol-3-yl)propan-2-yl]-3-[(propan-2-yl)oxy]benzamide]
pEC50 (human CB2 receptors): 7.38 | pEC50 (human CB1 receptors): < 5.00

Cc1nc([C@](C)(CS(C)(=O)=O)NC(=O)c2ccc(C3CC3)c(OCC3CC3)c2)no1 [Example 21, 4-Cyclopropyl-3-(cyclopropylmethoxy)-N-[(2R)-1-(methanesulfonyl)-2-(5-methyl-1,2,4-oxadiazol-3-yl)propan-2-yl]benzamide]
pEC50 (human CB2 receptors): 6.53 | pEC50 (human CB1 receptors): < 5.00

Cc1nc([C@](C)(CC2CC2)NC(=O)c2ccc(C3CC3)c(OCC(F)F)c2)no1 [Example 32, (+)-4-Cyclopropyl-N-[1-cyclopropyl-2-(5-methyl-1,2,4-oxadiazol-3-yl)propan-2-yl]-3-(2,2-difluoroethoxy)benzamide]
pEC50 (human CB2 receptors): 8.00 | pEC50 (human CB1 receptors): < 5.00

CC(C)C[C@@H](CO)NC(=O)c1ccc(N2CC(F)(F)C2)c(OCC2CC2)c1 [Example 13, 3-(Cyclopropylmethoxy)-4-(3,3-difluoroazetidin-1-yl)-N-[(2S)-1-hydroxy-4-methylpentan-2-yl]benzamide]
pEC50 (human CB2 receptors): 7.66 | pEC50 (human CB1 receptors): < 5.00

CC(C)(C)c1nc(-c2ccc(C3CC3)c(OCCF)c2)no1 [Example 30, 5-tert-Butyl-3-[4-cyclopropyl-3-(2-fluoroethoxy)phenyl]-1,2,4-oxadiazole]
pEC50 (human CB2 receptors): 7.42 | pEC50 (human CB1 receptors): < 5.00

Cc1nc(C(NC(=O)c2ccc(C3CC3)c(OC(C)C)c2)C2(C)COC2)no1 (centres unmarked) [Example 68, 4-Cyclopropyl-N-[(5-methyl-1,2,4-oxadiazol-3-yl)(3-methyloxetan-3-yl)methyl]-3-[(propan-2-yl)oxy]benzamide]
pEC50 (human CB2 receptors; [1]): 6.58 | pEC50 (human CB1 receptors): < 5.00

CCC(CC)(NC(=O)c1ccc(C2CC2)c(OCC2CC2)c1)C(N)=O [Example 18, N-(3-Carbamoylpentan-3-yl)-4-cyclopropyl-3-(cyclopropylmethoxy)benzamide]
pEC50 (human CB2 receptors; [1]): 6.63 | pEC50 (human CB1 receptors): < 5.00

CNC(=O)[C@@H](NC(=O)c1ccc(C2CC2)c(OCC(F)(F)F)c1)C(C)(C)C [Example 41, 4-Cyclopropyl-N-[(2S)-3,3-dimethyl-1-(methylamino)-1-oxobutan-2-yl]-3-(2,2,2-trifluoroethoxy)benzamide]
pEC50 (human CB2 receptors): 8.00 | pEC50 (human CB1 receptors): 6.23
